Measurements as given in patent publication US20240208898A1, “ENAMINE N-OXIDES: SYNTHESIS AND APPLICATION TO HYPOXIA-RESPONSIVE PRODRUGS AND IMAGING AGENTS” (DANA-FARBER CANCER INSTITUTE, INC., priority 2021, published 2024).

Assays:
Assay type in all cases: cell-based
[1] = system: BxPC-3 cells; assay: Western blot of pimonidazole-labeled cells; details: 48 h, 10 μM, printed 'until after 1% pO2'
Description: Cells were seeded at a density of 200,000 cells per well in media [2 mL, RPMI supplemented with 5% heat-inactivated human serum (Sigma), penicillin (100 units/mL), and streptomycin (0.1 mg/mL)] in 6-well plates. Cells were incubated at 37° C. under ambient atmosphere with 5% CO2. After 24 hours, the media was aspirated and replaced with media [1 mL, RPMI supplemented with 5% heat-inactivated HS, penicillin (100 units/mL), and streptomycin (0.1 mg/mL)] containing pimonidazole (1 μL, 10 mM in water; 10 μM final concentration). Plates were then incubated at 37° C. under ambient (20% pO2) or oxygenated conditions (5%, 1%, or 0.1% pO2) with 5% CO2 for 48 hours. The oxygenated conditions were maintained using a hypoxia chamber (ProOx C21, Biospherix) in a cell culture incubator. After 48 hours, the media was aspirated, and the cells were washed with PBS (1 mL). PBS (1 mL) was then added to each well and the cells were scraped off with a cell scraper. […] The protein concentration was then determined by BCA assay following the manufacturer's protocol (Pierce). […] The dried pellet was then resuspended in an SDS solution (50 μL, 1% SDS in 50 mM Tris, pH 8.0), and the protein concentration was determined by BCA assay. […] Blots were imaged using a fluorescence scanner (Odyssey CLx, LI-COR Biosciences) and quantified by ImageJ.

[2] = system: A431 or H460 cells; assay: Staurosporine enamine N-oxide cell viability studies (MTT); details: compared with AQ4N
Description: A431 or H460 cells were seeded at a density of 12,000-13,000 cells per well in media [100 μL, RPMI supplemented with 5% heat-inactivated human serum (Sigma), penicillin (100 units/mL), and streptomycin (0.1 mg/mL)] in clear 96-well plates. PBS (100 μL) was added to the edge wells. The cells were incubated at 37° C. under ambient atmosphere with 5% CO2. After 24 hours, the media was aspirated and replaced with media [50 μL, RPMI supplemented with 5% HS, penicillin (100 units/mL), and streptomycin (0.1 mg/mL)] containing the staurosporine derivative of interest. For A431 cells, staurosporine or staurosporine derivative treatment concentrations started at 50 μM and were serially diluted 4-fold across nine wells. For H460 cells, staurosporine or staurosporine derivative treatment concentrations started at 100 μM and were serially diluted 4-fold across nine wells. […] After 48 hours, the media was aspirated, the wells were washed once with PBS (130 μL), and the cell viability was determined using the MTT assay. […] The absorbance at 570 nm was measured using a microplate reader (Clariostar Plus, BMG Labtech).
These studies were performed as previously reported (Manley et al., J. Pharmacol. Exp. Ther. 344:368-377 (2013)). […] After 72 hours, cell viability was determined using the MTT assay. […] The absorbance at 570 nm was then measured using a microplate reader (Clariostar Plus, BMG Labtech).

[3] = system: A431 cells; assay: Staurosporine release by A431 cells; details: 7.5×10^6 A431 cells, 100 μM compound, serum free RPMI, HPLC
Description: Sterilized 2 mL HPLC vials were each charged with a suspension of 7.5×10^6 cells in RPMI (1 mL) and sealed with a cap containing a septum. The vials were charged with only RPMI (1 mL) in the no cell controls. A stock solution of staurosporine enamine N-oxide 37 (10 μL, 10 mM in ethanol; 100 μM final concentration) was then added to each vial. Septa were pierced with an open 22-gauge needle for normoxic conditions. Hypoxic conditions were maintained using nitrogen lines connected to a vacuum gas manifold. The vials were maintained at 37° C. in a water bath and shaken every 15 minutes. At different time points (0, 1, 2, 4, and 8 hours), an aliquot of the cell suspension (100 μL) was removed from each vial and immediately added to acetonitrile (100 μL) containing p-nitrophenol (10 μM) as an internal standard. Quenched samples were then cooled to −20° C. for 1 hour and centrifuged at 10,000×g for 5 minutes at 4° C. The supernatant was collected and analyzed by HPLC (C18 column, 4.6×250 mm, 5 μm particle size, 1 mL/minute flow rate, eluent: gradient 0→20% MeCN/H2O+0.1% TFA (1 minute), gradient 20→40% MeCN/H2O+0.1% TFA (7 minutes), gradient 40→100% MeCN/H2O+0.1% TFA (3 minutes)). Staurosporine was quantified using its absorbance at 280 nm.

Row | Compound | oxygen tension at which apparent half maximal labeling capacity (0.1% pO2) is reached [1] [% pO2] | hypoxic to normoxic cytotoxicity ratios (HCR) [2] | rate of conversion to staurosporine under hypoxic conditions relative to normoxic [3] [fold]
1 | O=[N+]([O-])c1nccn1CC(O)CN1CCCCC1 (stereo not drawn) [Pimonidazole] | < 1 | – | –
2 | CC[N+]([O-])(/C=C/COC(=O)N1Cc2c(c3c4ccccc4n4c3c3c2c2ccccc2n3[C@@]2(C)O[C@@H]4C[C@@H](NC)[C@H]2OC)C1=O)CC [compound 37, N,N-diethyl enamine N-oxide staurosporine] | – | compare favorably with and are complementary to those of AQ4N | ~4
